The values that follow come from ChEMBL document CHEMBL4825667, “α-Glucosidase Inhibitors from Ageratina grandifolia” (J Nat Prod, 2021).

Active and inactive are the calls of the source. The calls are words filed in the database; no cut-off is given here.

What is called IC50 is the concentration that gives 50% inhibition. By Km is commonly meant the concentration of substrate that gives half-maximal velocity. The term Vmax denotes the top rate of the reaction or transport when substrate is in excess.

Test [1] in a line: Inhibition of yeast Alpha-glucosidase using p-nitro phenyl-alpha-D-glucopyranoside as a substrate measured after 20 mins by spectrophotocolorimetric analysis. Also on record: species or system Saccharomyces cerevisiae.
For test [2], the species on record is Homo sapiens. The test can be described thus: Inhibition of Type-2 alpha glucosidase (unknown origin).
Test [3] is filed under the species Homo sapiens. The test is described as follows: Inhibition of Type-1 alpha glucosidase (unknown origin).
The subject of test [4] is Saccharomyces cerevisiae. The test can be described thus: Mixed type inhibition of yeast Alpha- glucosidase assessed as increase in Km using varying levels of p-NPG as substrate measured after 20 mins by reciprocal Lineweaver-Burk plot analysis.
The test system of test [5] is Saccharomyces cerevisiae. The test is described as follows: Mixed type inhibition of yeast Alpha- glucosidase assessed as decrease in Vmax using varying levels of p-NPG as substrate measured after 20 mins by reciprocal Lineweaver-Burk plot analysis.

In test [1], `CC(=O)c1ccc2c(c1)C=CC(C)(C)O2` gave an IC50 of 460 µM.

Turning to `COc1cc2c(cc1C(C)OC)C=CC(C)(C)O2` (stereo not drawn), the IC50 in test [1] was 404 µM.

On to `C[C@H]1O[C@H](O[C@H]2[C@H](O)[C@@H](O)[C@@H](O[C@H]3[C@H](O)[C@@H](O)C(O)O[C@@H]3CO)O[C@@H]2CO)[C@H](O)[C@@H](O)[C@@H]1N[C@H]1C=C(CO)[C@@H](O)[C@H](O)[C@H]1O` (stereo partly drawn) [ACARBOSE], for which the inhibition result in the test listed under Homo sapiens [2] and in the test filed under Homo sapiens [3] was “Active” throughout. In test [1], this compound showed an IC50 of 279 µM.

For `O=C(/C=C/c1ccc(O)c(O)c1)OC[C@H]1O[C@@H](Oc2cc3oc(-c4ccc(O)c(O)c4)c(O)c(=O)c3c(O)c2O)[C@H](O)[C@@H](O)[C@@H]1O`, the Km in the test on Saccharomyces cerevisiae [4] worked out at 610 µM. Also, in test [1], the IC50 came to 0.79 µM. For the same compound, the Vmax in the test with Saccharomyces cerevisiae [5] is 1.42 mM/min.

As to `C/C=C(/C)C(=O)O[C@@H](c1cc(C(C)=O)ccc1O)[C@H]1OC1(C)C`, half-maximal inhibition in test [1] (IC50) required 288 µM.

`COc1cc2c(cc1C(C)O)C=CC(C)(C)O2` (stereo not drawn) returned an IC50 in test [1] of 672 µM.

In test [1], `O=c1c(O)c(-c2ccc(O)c(O)c2)oc2cc(O[C@@H]3O[C@H](CO)[C@@H](O)[C@H](O)[C@H]3O)c(O)c(O)c12` came in with an IC50 of 402 µM.

The compound `O=C(/C=C/c1ccc(O)c(O)c1)OC[C@H]1O[C@@H](Oc2cc3oc(-c4ccc(O)cc4)c(O)c(=O)c3c(O)c2O)[C@H](O)[C@@H](O)[C@@H]1O` returned an IC50 in test [1] of 6.94 µM.

For `COc1cc2c(cc1C(C)=O)C=CC(C)(C)O2` [ENCECALIN], the concentration for half-maximal inhibition (IC50) in test [1] is 440 µM.
